In data set [1] the target is T1, recombinant human CYP11B2 (Homo sapiens, UniProt P19099).
T1 construct: made in house; host or cells: V79-4 cells (enzyme enriched microsomal fraction of cell lysates)
T1 sequence (P19099 25-503): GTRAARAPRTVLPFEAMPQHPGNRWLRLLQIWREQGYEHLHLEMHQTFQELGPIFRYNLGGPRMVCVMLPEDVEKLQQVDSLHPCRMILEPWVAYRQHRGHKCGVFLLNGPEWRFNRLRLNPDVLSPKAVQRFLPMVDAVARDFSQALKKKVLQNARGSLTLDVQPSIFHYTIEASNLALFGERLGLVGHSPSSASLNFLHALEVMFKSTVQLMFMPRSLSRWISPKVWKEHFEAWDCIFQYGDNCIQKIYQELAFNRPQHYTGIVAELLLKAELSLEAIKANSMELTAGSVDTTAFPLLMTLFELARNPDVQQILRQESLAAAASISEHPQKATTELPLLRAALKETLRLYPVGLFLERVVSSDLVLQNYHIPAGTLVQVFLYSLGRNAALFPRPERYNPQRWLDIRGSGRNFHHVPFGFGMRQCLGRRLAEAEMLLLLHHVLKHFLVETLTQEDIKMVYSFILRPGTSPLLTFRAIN
Kind of data set: CYP11B2 enzyme assay, enzyme enriched microsomes from V79-4 cells, aldosterone by LC-MS. Particulars: for Selectivity: CYP11B1 IC50/CYP11B2 IC50. It is filed as biochemical.
Method: (§1) An enzyme enriched microsomal fraction was prepared from cellular lysates and subsequently used as the enzyme source for determining inhibitor IC50s. […] Enzyme assays for inhibitor screening employed CYP11B2 and CYP11B1 enzyme enriched microsomes and were run at the Km of the respective substrates. Products of the enzyme reactions, aldosterone for CYP11B2 or cortisol for CYP11B1, were measured by LC-MS. Assays were run under conditions of less than 20% substrate turnover. Inhibitor IC50s were generated by determining the product formation in the absence or presence of inhibitor at various concentrations. In the absence of the test compound, the product formed (Pt) in each data set was defined as 100% activity. In the absence of enzyme, the product formed (Pb) in each data set was defined as 0% activity. The percent activity in the presence of each inhibitor was calculated according to the following equation: % activity=(P−Pb)/(Pt−Pb), where P=the product formed in the presence of the inhibitor.

Data set [2] concerns the target T2, recombinant human CYP11B1 (Homo sapiens, UniProt P15538).
T2 construct: made in house; host or cells: V79-4 cells (enzyme enriched microsomal fraction of cell lysates)
T2 sequence (P15538 25-503): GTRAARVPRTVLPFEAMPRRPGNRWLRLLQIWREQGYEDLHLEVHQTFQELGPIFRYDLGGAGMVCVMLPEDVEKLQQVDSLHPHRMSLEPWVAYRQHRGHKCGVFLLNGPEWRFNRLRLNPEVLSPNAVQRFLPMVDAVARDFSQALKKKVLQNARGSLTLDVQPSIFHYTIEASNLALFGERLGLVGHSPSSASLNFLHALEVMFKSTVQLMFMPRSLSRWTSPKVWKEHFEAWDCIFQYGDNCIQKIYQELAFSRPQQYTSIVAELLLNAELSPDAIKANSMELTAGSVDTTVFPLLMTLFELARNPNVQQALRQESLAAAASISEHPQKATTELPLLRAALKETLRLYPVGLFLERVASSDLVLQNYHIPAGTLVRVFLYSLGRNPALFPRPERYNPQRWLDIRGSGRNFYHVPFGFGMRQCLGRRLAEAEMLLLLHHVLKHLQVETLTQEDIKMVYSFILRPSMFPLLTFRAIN
Kind of data set: CYP11B1 enzyme assay, enzyme enriched microsomes from V79-4 cells, cortisol by LC-MS. Type of data set: biochemical.
Method: as §1

The nature of data set [3]: Cyno liver microsome stability. The settings on record: for Cyno LM Stability: % Compound remaining at 65 min in cyno liver microsomes. It is filed as in vitro ADME, cynomolgus monkey.
Data set [4] can be described thus: Rat liver microsome stability. The settings on record: for Rat LM Stability: % Compound remaining at 65 min in rat liver microsomes. It is filed as in vitro ADME. On the technique in general: Liver microsomes are a subcellular fraction often used to study metabolism.
Data set [5] in a line: Cyno half life after PO dose. Also noted: species or system cynomolgus monkeys. Particulars: cynomolgus monkey.
Setting [6] is: IC50 ranges, run at Km of 11-deoxycorticosterone, read-out: hCYP11B2 IC50.
Where [7] appears, read: Table 3 comparison, read-out: CYP11B2 IC50.
[8] abbreviates: IC50 ranges, run at Km of 11-deoxycortisol, read-out: hCYP11B1 IC50.
Where [9] appears, read: Table 3 comparison, read-out: CYP11B1 IC50.
The mark [10] stands for this setting: compared with pyridine counterpart Example 76.

Where two headings read alike, the source gives them in different places.

As a reminder, the IC50 is the concentration that gives 50% inhibition. For `Fc1cc2nc(-c3cncnc3C(F)(F)F)n(C3CC3)c2cc1F` [Example 30, 1-Cyclopropyl-5,6-difluoro-2-(4-(trifluoromethyl)pyrimidin-5-yl)-1H-benzo[d]imidazole], the Selectivity in data set [1] stood at 199. The concentration for half-maximal inhibition (IC50) in data set [1] (setting [6]) was 1 to 100 nM; in data set [1] (setting [7]) it was 32 nM; in data set [2] (setting [8]), 1000 to 10000 nM; in data set [2] (setting [9]), 6370 nM. For the same compound, in data set [3], the “Cyno LM Stability” value is recorded as 99%. The “metabolic stability when exposed to cynomolgus monkey liver microsomes” value in data set [3] (setting [10]) is “much greater metabolic stability”. In data set [4], the “Rat LM Stability” value is given as 108%. Moreover, the “metabolic stability when exposed to rat liver microsomes” value in data set [4] (setting [10]) is “much greater metabolic stability”. The “in vivo half-lives in cynomolgus monkeys” value in data set [5] is on record as “long in vivo half-lives”. Also, the half-life in data set [5] (in vivo, 1 mg/kg PO dose, read-out: Cyno T½ (converted)) is 37.5 h.
Take `Cc1ncncc1-c1nc2cc(F)c(F)cc2n1C1CC1` [Example 44, 1-Cyclopropyl-5,6-difluoro-2-(4-methylpyrimidin-5-yl)-1H-benzo[d]imidazole]: in data set [1], the Selectivity stood at 244. In addition, the IC50 in data set [1] (setting [6]) is 1 to 100 nM; in data set [1] (setting [7]), 17 nM; in data set [2] (setting [8]), 1000 to 10000 nM; in data set [2] (setting [9]), 4160 nM. Besides, the “Cyno LM Stability” value in data set [3] came to 72%. Moreover, in data set [4], the “Rat LM Stability” value is given as 96%.

The values above are taken from patent US11919883B2, “Metalloenzyme inhibitor compounds” (Ji Xing Pharmaceuticals Hong Kong Limited, priority 2016, dated 2024).
